What all share (assay type): cell-based
For assay [1], the system named is Klebsiella pneumonia/FDA-CDC AR-BANK#0097. Put plainly: MIC of MB076 alone or in combination with cefepime or meropenem. The note with it: Klebsiella pneumoniae. How it is done:
(§1) MICs were determined by the Agar microdilution method, following CLSI guidelines. Compounds were tested at fixed concentration of 4 ug/ml in combination with cefepime.

Assay [2] relates to Klebsiella pneumonia/BAA-1705. Described as above. As to conditions: Klebsiella pneumoniae, BAA1705. The procedure:
as §1

Assay [3] relates to Klebsiella pneumonia/FDA-CDC AR-BANK#0098. The description is as above. As to conditions: Klebsiella pneumoniae. The procedure:
as §1

In a further assay the test system is E. coli ATCC BAA202. Put plainly: MIC with cefepime, agar microdilution, CLSI. The note with it: compound fixed at 4 ug/ml; SHV-1. The procedure: (§2) Minimum inhibitory concentration (MIC) of MB076 and derivatives (PCF_038-043) in combination with cefepime.
as §1

For a further assay, the system named is K. pneumoniae ST17. The experiment in a line: MIC with cefepime, agar microdilution, CLSI. As to conditions: compound fixed at 4 ug/ml; KPC-2, TEM, SHV, CTX-M-Group 1. How it is done:
as §2, §1

In a further assay the test system is K. pneumoniae 255. The experiment in a line: MIC with cefepime, agar microdilution, CLSI. As to conditions: compound fixed at 4 ug/ml; TEM-1, SHV-2. The procedure:
as §2, §1

For the next assay, the system named is K. pneumoniae 34700. The experiment in a line: MIC with cefepime, agar microdilution, CLSI. As to conditions: compound fixed at 4 ug/ml; CTX-M-15, SHV, TEM. The procedure:
as §2, §1

For assay [4], the system named is E. coli DH10B pBC-SK SHV-2. Put plainly: MIC with cefepime, agar microdilution, CLSI. The note with it: compound fixed at 4 ug/ml. How it is done:
as §2, §1

In assay [5] the test system is E. coli DH10B pBC-SK KPC-2. The experiment in a line: MIC with cefepime, agar microdilution, CLSI. As to conditions: compound fixed at 4 ug/ml. How it is done: as §2, §1
The next assay has as its system K. pneumoniae 253. The experiment in a line: MIC with cefepime, agar microdilution, CLSI. The note with it: compound fixed at 4 ug/ml; TEM-12, SHV-5, CTX-M. How it is done: as §2, §1
Another assay relates to E. coli pLTCF2. Put plainly: MIC with cefepime, agar microdilution, CLSI. The note with it: compound fixed at 4 ug/ml. The procedure:
as §2, §1

A further assay deals with K. pneumoniae ST258 C3. Put plainly: MIC with cefepime, agar microdilution, CLSI. As to conditions: compound fixed at 4 ug/ml; KPC-3. How it is done:
as §2, §1

The test system of a further assay is K. pneumoniae ST258 B5. The experiment in a line: MIC with cefepime, agar microdilution, CLSI. As to conditions: compound fixed at 4 ug/ml; KPC-2. The procedure:
as §2, §1

The test system of the next assay is K. pneumoniae 266. The experiment in a line: MIC with cefepime, agar microdilution, CLSI. As to conditions: compound fixed at 4 ug/ml; SHV-5. The procedure: as §2, §1
In assay [6] the test system is E. coli DH10B pBC-SK PDC-3. The experiment in a line: MIC with cefepime, agar microdilution, CLSI. The note with it: compound fixed at 4 ug/ml. How it is done: as §2, §1
The test system of assay [7] is E. coli DH10B pBC-SK control. The experiment in a line: MIC with cefepime, agar microdilution, CLSI. As to conditions: compound fixed at 4 ug/ml; B-lactamases none. How it is done:
as §2, §1

In the next assay the test system is E. coli DH10B pBC-SK P99. The experiment in a line: MIC with cefepime, agar microdilution, CLSI. As to conditions: compound fixed at 4 ug/ml. The procedure: as §2, §1
In the next assay the test system is E. coli 29838. Put plainly: MIC with cefepime, agar microdilution, CLSI. The note with it: compound fixed at 4 ug/ml; CTX-M-14, TEM-1. The procedure: as §2, §1
The next assay relates to A. baumannii 0057. The experiment in a line: MIC with cefepime, agar microdilution, CLSI. The note with it: compound fixed at 4 ug/ml; ADC-7. The procedure: as §2, §1
Assay [8] relates to K. pneumoniae original KPC-2. The experiment in a line: MIC with cefepime, agar microdilution, CLSI. As to conditions: compound fixed at 4 ug/ml. The procedure: as §2, §1
A further assay concerns K. pneumoniae 427. Put plainly: MIC with cefepime, agar microdilution, CLSI. The note with it: compound fixed at 4 ug/ml; TEM-1, SHV-1, CTX-M-3. How it is done:
as §2, §1

Another assay has as its system E. coli pLTCF1. The experiment in a line: MIC with cefepime, agar microdilution, CLSI. The note with it: compound fixed at 4 ug/ml; CTX-M group 9. How it is done: as §2, §1

Read-outs that look alike come from different tables or passages of the source.

With `C[C@@H](O)[C@H]1C(=O)N2C(C(=O)O)=C(S[C@@H]3CN[C@H](C(=O)N(C)C)C3)[C@H](C)[C@H]12` [Meropenem, meropenem], the MIC – broadly, the lowest concentration that inhibits growth of the organism – in assay [1] (single agent, read-out: MIC) is above 32 µg/mL; in assay [2] (single agent, read-out: MIC), 32 µg/mL; in assay [3] (single agent, read-out: MIC) it was 16 µg/mL.
As for `Cc1nnc(SCC(=O)N[C@@H](Cn2cc(C(=O)O)nn2)B(O)O)[nH]1` [PCF_038], the MIC of cefepime in combination with compound with E. coli ATCC BAA202 is 0.5 µg/mL; in the assay with K. pneumoniae ST17, 32 µg/mL; in the assay with K. pneumoniae 255, 2 µg/mL; in the assay on K. pneumoniae 34700, 1 µg/mL; in assay [4] it was below 0.25 µg/mL; in [5], below 0.25 µg/mL. For the same molecule, the MIC of cefepime in combination with compound with K. pneumoniae 253 is 2 µg/mL; with E. coli pLTCF2, below 0.25 µg/mL; in the assay on K. pneumoniae ST258 C3, 0.5 µg/mL; in the assay with K. pneumoniae ST258 B5 it was 16 µg/mL; with K. pneumoniae 266, below 0.25 µg/mL; in assay [6], below 0.25 µg/mL. Also, the MIC of cefepime in combination with compound in assay [7] was below 0.25 µg/mL; in the assay on E. coli DH10B pBC-SK P99 it was below 0.25 µg/mL; in the assay on E. coli 29838, below 0.25 µg/mL; in the assay on A. baumannii 0057 it was 64 µg/mL; in assay [8] it was below 0.25 µg/mL; in the assay on K. pneumoniae 427, below 0.25 µg/mL. Besides, in the assay with E. coli pLTCF1, the MIC of cefepime in combination with compound is below 0.25 µg/mL.
`O=C(CNn1cnnc1S)N[C@@H](Cn1cc(C(=O)O)nn1)B(O)O` [PCF_039]: the MIC of cefepime in combination with compound in the assay on E. coli ATCC BAA202 is below 0.25 µg/mL; in the assay on K. pneumoniae ST17 it was 16 µg/mL; with K. pneumoniae 255, 2 µg/mL; in the assay on K. pneumoniae 34700, 1 µg/mL; in assay [4] it was below 0.25 µg/mL; in assay [5], below 0.25 µg/mL. The MIC of cefepime in combination with compound is 1 µg/mL in the assay on K. pneumoniae 253; below 0.25 µg/mL in the assay on E. coli pLTCF2; below 0.25 µg/mL in the assay on K. pneumoniae ST258 C3; 4 µg/mL with K. pneumoniae ST258 B5; below 0.25 µg/mL in the assay with K. pneumoniae 266; below 0.25 µg/mL in [6]. Moreover, the MIC of cefepime in combination with compound in assay [7] was below 0.25 µg/mL; in the assay on E. coli DH10B pBC-SK P99 it was below 0.25 µg/mL; in the assay on E. coli 29838 it was below 0.25 µg/mL; with A. baumannii 0057 it was 32 µg/mL; in assay [8] it was 0.5 µg/mL; in the assay on K. pneumoniae 427 it was below 0.25 µg/mL. For the same molecule, the MIC of cefepime in combination with compound with E. coli pLTCF1 is below 0.25 µg/mL.
On to `O=C(CSC1=NCCS1)NC(Cn1cc(C(=O)O)nn1)B(O)O` (stereo not drawn) [PCF_040], for which the MIC of cefepime in combination with compound with E. coli ATCC BAA202 was determined as 2 µg/mL; with K. pneumoniae ST17, 32 µg/mL; with K. pneumoniae 255, 2 µg/mL; in the assay on K. pneumoniae 34700, 4 µg/mL; in [4], 0.5 µg/mL; in assay [5], 1 µg/mL. Also, the MIC of cefepime in combination with compound was 4 µg/mL with K. pneumoniae 253; below 0.25 µg/mL with E. coli pLTCF2; 2 µg/mL with K. pneumoniae ST258 C3; 32 µg/mL with K. pneumoniae ST258 B5; below 0.25 µg/mL in the assay on K. pneumoniae 266; below 0.25 µg/mL in [6]. Further, the MIC of cefepime in combination with compound in [7] was below 0.25 µg/mL; in the assay with E. coli DH10B pBC-SK P99, below 0.25 µg/mL; in the assay on E. coli 29838, 0.5 µg/mL; in the assay with A. baumannii 0057 it was 32 µg/mL; in assay [8], 2 µg/mL; in the assay with K. pneumoniae 427 it was 1 µg/mL. In addition, in the assay on E. coli pLTCF1, the MIC of cefepime in combination with compound was determined as 0.5 µg/mL.
On to `O=C(CNc1nnc(S)s1)N[C@@H](Cn1cc(C(=O)O)nn1)B(O)O` [PCF_041], for which the MIC of cefepime in combination with compound is 0.5 µg/mL in the assay on E. coli ATCC BAA202; 16 µg/mL in the assay with K. pneumoniae ST17; 2 µg/mL in the assay on K. pneumoniae 34700; below 0.25 µg/mL in assay [4]; below 0.25 µg/mL in [5]; 2 µg/mL in the assay on K. pneumoniae 253. For the same molecule, the MIC of cefepime in combination with compound was below 0.25 µg/mL in the assay on E. coli pLTCF2; 1 µg/mL with K. pneumoniae ST258 C3; 16 µg/mL with K. pneumoniae ST258 B5; below 0.25 µg/mL with K. pneumoniae 266; below 0.25 µg/mL in assay [6]; below 0.25 µg/mL in assay [7]. Further, the MIC of cefepime in combination with compound in the assay on E. coli DH10B pBC-SK P99 was below 0.25 µg/mL; in the assay with E. coli 29838 it was below 0.25 µg/mL; with A. baumannii 0057, 64 µg/mL; in assay [8] it was 0.5 µg/mL; with K. pneumoniae 427, 0.5 µg/mL; in the assay with E. coli pLTCF1, 0.5 µg/mL.
`O=C(CSc1ccccn1)N[C@@H](Cn1cc(C(=O)O)nn1)B(O)O` [PCF_042]: the MIC of cefepime in combination with compound is below 0.25 µg/mL in the assay on E. coli ATCC BAA202; 32 µg/mL with K. pneumoniae ST17; 2 µg/mL with K. pneumoniae 255; 1 µg/mL in the assay on K. pneumoniae 34700; below 0.25 µg/mL in [4]; below 0.25 µg/mL with E. coli pLTCF2. The MIC of cefepime in combination with compound is 0.5 µg/mL in the assay with K. pneumoniae ST258 C3; 16 µg/mL in the assay with K. pneumoniae ST258 B5; below 0.25 µg/mL with K. pneumoniae 266; below 0.25 µg/mL in assay [6]; below 0.25 µg/mL in [7]; below 0.25 µg/mL in the assay on E. coli DH10B pBC-SK P99. For the same molecule, the MIC of cefepime in combination with compound was below 0.25 µg/mL with E. coli 29838; 64 µg/mL with A. baumannii 0057; below 0.25 µg/mL in assay [8]; below 0.25 µg/mL in the assay on K. pneumoniae 427; below 0.25 µg/mL in the assay on E. coli pLTCF1.
As to `O=C(CS)N[C@@H](Cn1cc(C(=O)O)nn1)B(O)O` [PCF_043], the MIC of cefepime in combination with compound with E. coli ATCC BAA202 was 1 µg/mL; in the assay with K. pneumoniae ST17 it was 32 µg/mL; in the assay with K. pneumoniae 255, 4 µg/mL; with K. pneumoniae 34700 it was 4 µg/mL; in assay [4], below 0.25 µg/mL; in assay [5], 1 µg/mL. The MIC of cefepime in combination with compound in the assay with K. pneumoniae 253 is 4 µg/mL; with E. coli pLTCF2, below 0.25 µg/mL; in the assay on K. pneumoniae ST258 C3, 2 µg/mL; with K. pneumoniae ST258 B5 it was 16 µg/mL; in the assay with K. pneumoniae 266, below 0.25 µg/mL; in assay [6] it was below 0.25 µg/mL. The MIC of cefepime in combination with compound in assay [7] is below 0.25 µg/mL; with E. coli DH10B pBC-SK P99, 1 µg/mL; in the assay with E. coli 29838, 0.5 µg/mL; in the assay on A. baumannii 0057, 32 µg/mL; in [8] it was 1 µg/mL; with K. pneumoniae 427 it was 1 µg/mL. Besides, the MIC of cefepime in combination with compound with E. coli pLTCF1 was 1 µg/mL.
As for `CN(C)c1cc(NC(=O)CNC(C)(C)C)c(O)c2c1C[C@H]1C[C@H]3[C@H](N(C)C)C(O)=C(C(N)=O)C(=O)[C@@]3(O)C(O)=C1C2=O` [Tigecycline], the MIC came to 4 µg/mL in assay [1], 2 µg/mL in assay [2] and 1 µg/mL in [3].
